Assay results from patent US5710124A, “Method for combatting bovine mastitis” (Novartis Corporation, priority 1993, dated 1998).
Ends that are not written are not given here.

Assays:
[1] = test system: Streptococcus diacetylactis; assay: MIC plate assay; assay type: cell-based; conditions: for MIC: S. diacetylactis
Method: (§1) The MICs (Minimal Inhibitory Concentrations) of Gallidermin against […] and Streptococcus diacetylactis were determined. S. aureus Newbold 305 is a causative agent of Mastitis, S. diacetylactis is used in the manufacture of yoghurt and cheese.
(§2) Appropriate dilutions Gallidermin (300, 100, 30, 10, 3, 1, 0.3, 0.1 µg/ml) were prepared in milk and in M17 broth (Merck) and allowed to stand at room temperature for 30 min.
(§3) Then, […] aliquots of the solutions were spotted on M17 agar plates containing 0.5% of glucose. These plates had been overlaid with softagar (0.5% agarose) seeded with 1% of an A600=1 culture of either S. aureus or S. diacetylactis. The spots were allowed to dry, then the plates were incubated at 30° C. overnight.
(§4) The MICs were determined as the lowest concentration of antimicrobial protein causing the formation of a clear halo in the bacterial lawn.

Staphylococcus aureus = assay: Subclinical bovine mastitis infection model, intramammary treatment; assay type: in vivo, cows
Source text: Preliminary experiments for evaluating the potential of Gallidermin, Epidermin or of their pharmaceutically acceptable acid addition salts in subclinical bovine mastitis
Non-infected cows are selected based on non recovery of Staphylococcus aureus from two milk samples taken one day apart from all quarters. Then, 3 quarters are inoculated via the intramammary route using a suspension of Staphylococcus aureus. The 4th quarter serves as control. During the two to four weeks after inoculation, milk samples are taken from all quarters at least 3 times to see whether Staphylococcus aureus can be recovered, and therefore whether the quarter has become infected. A quarter is defined as infected, if Staphylococcus aureus is recovered from at least two of these milk samples. Treatments are assigned randomly to infected quarters and injected via the intramammary route. Milk samples are taken daily until a minimum of 14 days after the last treatment. A quarter is considered as cured if milk samples from that quarter become negative (i.e., no Staphylococcus aureus is recovered) within 7 days after the last treatment and stay negative throughout the 14 day sampling period.
This experimental model is used to have a fixed framework on which to evaluate treatments. To work with Staphylococcus aureus has the advantage that it is the most difficult Gram positive bacterium to treat and one of the most important bacteria causing bovine mastitis. Therefore, cure rates should be expected to be lower than for other Gram positive bacteria, such as Streptococci and coagulase-negative Staphylococci.
In addition, the infection is mild as it should be for subclinical mastitis.
To optimize work load in relation to man power, 8 to 16 cows are enrolled in each trial. Trials normally last 5 weeks.

[2] = test system: Staphylococcus aureus Newbold 305; assay: Effect on S. aureus in milk (cfu, percent survival); assay type: cell-based; conditions: for % survival: 37° C. 30 min
Method: Effect of Gallidermin on […] in milk Staphylococcus aureus Newbold 305 was grown in M17 broth (Merck) at 37° C. to an optical density at 600 nm of 1.0. Cells were collected by centrifugation and washed in 20 mM Tris-HCl pH 8.0. The bacterial pellet was resuspended in milk at a density of about 10^7 cells/ml. 1 ml aliquots of this suspension were incubated in eppendorf tubes with various amounts of Nisin, Lacticin 481 and Gallidermin. Incubations were at 37° C. for 30 min. A control with no antimicrobial added was run in parallel. After incubation the samples were centrifuged to obtain the cellular pellet, which was washed 2 times with 1 ml of 20 mM Tris-HCl pH 8.0 and resuspended in 1 ml of this buffer. […] of the appropriate dilutions were plated on M17 agar plates containing 0.5% glucose and incubated overnight at 37° C. Colony forming units (cfu) were determined and percent survival was calculated relative to the control.

S. aureus Newbold 305 = assay: MIC plate assay; assay type: cell-based, Staphylococcus aureus
Method: as §1, §2, §3, §4

## Gallidermin (IASKFLCTPGCAKTGSFNSYCC; not fully specified; ends and bridges not checked; also: lantibiotic; UniProt P21838 31-52, looked up) [natural product produced by the microorganism Staphylococcus gallinarum; lanthionine containing peptide]
[1]; dilutions in M17 broth
  MIC: 0.3 mug/ml
[1]; dilutions in milk
  MIC: 1 mug/ml
[1]; milk and M17 broth
  activity against Streptococcus diacetylactis in milk versus broth: comparable activities
Staphylococcus aureus; 3 × 1 mg, 27 qutrs, day 0 (before treatment)
  % of treated group positive: 93%
Staphylococcus aureus; 3 × 1 mg, 27 qutrs, day 1
  % of treated group positive: 37%
Staphylococcus aureus; 3 × 1 mg, 27 qutrs, day 2
  % of treated group positive: 11%
Staphylococcus aureus; 3 × 1 mg, 27 qutrs, day 3
  % of treated group positive: 26%
Staphylococcus aureus; 3 × 1 mg, 27 qutrs, day 4
  % of treated group positive: 56%
Staphylococcus aureus; 3 × 1 mg, 27 qutrs, day 5
  % of treated group positive: 59%
Staphylococcus aureus; 3 × 1 mg, 27 qutrs, day 7
  % of treated group positive: 56%
Staphylococcus aureus; 3 × 1 mg, 27 qutrs, day 8
  % of treated group positive: 56%
Staphylococcus aureus; 3 × 1 mg, 27 qutrs, day 9
  % of treated group positive: 52%
Staphylococcus aureus; 3 × 1 mg, 27 qutrs, day 10
  % of treated group positive: 56%
Staphylococcus aureus; 3 × 1 mg, 27 qutrs, day 11
  % of treated group positive: 56%
Staphylococcus aureus; 3 × 1 mg, 27 qutrs, day 12
  % of treated group positive: 52%
Staphylococcus aureus; 3 × 1 mg, 27 qutrs, day 14
  % of treated group positive: 48%
Staphylococcus aureus; 3 × 1 mg, 27 qutrs, day 15
  % of treated group positive: 52%
Staphylococcus aureus; 14 × 0.1 mg, 24 qutrs, day 0 (before treatment)
  % of treated group positive: 96%
Staphylococcus aureus; 14 × 0.1 mg, 24 qutrs, day 1
  % of treated group positive: 88%
Staphylococcus aureus; 14 × 0.1 mg, 24 qutrs, day 2
  % of treated group positive: 88%
Staphylococcus aureus; 14 × 0.1 mg, 24 qutrs, day 3
  % of treated group positive: 71%
Staphylococcus aureus; 14 × 0.1 mg, 24 qutrs, day 4
  % of treated group positive: 58%
Staphylococcus aureus; 14 × 0.1 mg, 24 qutrs, day 5
  % of treated group positive: 67%
Staphylococcus aureus; 14 × 0.1 mg, 24 qutrs, day 7
  % of treated group positive: 50%
Staphylococcus aureus; 14 × 0.1 mg, 24 qutrs, day 8
  % of treated group positive: 67%
Staphylococcus aureus; 14 × 0.1 mg, 24 qutrs, day 9
  % of treated group positive: 71%
Staphylococcus aureus; 14 × 0.1 mg, 24 qutrs, day 10
  % of treated group positive: 88%
Staphylococcus aureus; 14 × 0.1 mg, 24 qutrs, day 11
  % of treated group positive: 83%
Staphylococcus aureus; 14 × 0.1 mg, 24 qutrs, day 12
  % of treated group positive: 88%
Staphylococcus aureus; 14 × 0.1 mg, 24 qutrs, day 14
  % of treated group positive: 79%
Staphylococcus aureus; 14 × 0.1 mg, 24 qutrs, day 15
  % of treated group positive: 88%
Staphylococcus aureus; 14 × 0.1 mg, 24 qutrs, day 16
  % of treated group positive: 83%
Staphylococcus aureus; 14 × 0.1 mg, 24 qutrs, day 17
  % of treated group positive: 83%
Staphylococcus aureus; 14 × 0.1 mg, 24 qutrs, day 19
  % of treated group positive: 79%
Staphylococcus aureus; 14 × 0.1 mg, 24 qutrs, day 21
  % of treated group positive: 83%
[2]
  activity against Staphylococcus aureus in the presence of milk: retains a high specific activity
[2]; 0.3 µg/ml
  % survival: 29%
[2]; 1 µg/ml
  % survival: 12%
[2]; 3 µg/ml
  % survival: 1%
[2]; 10 µg/ml
  % survival: 0.01%
S. aureus Newbold 305; dilutions in M17 broth
  MIC: 1 mug/ml
S. aureus Newbold 305; dilutions in milk
  MIC: 0.3 mug/ml

## Lacticin 481
[2]
  activity against Staphylococcus aureus in the presence of milk: strongly inhibited
[2]; 1 µg/ml
  % survival: 74%
[2]; 3 µg/ml
  % survival: 51%
[2]; 10 µg/ml
  % survival: 36%
[2]; 30 µg/ml
  % survival: 30%
[2]; 100 µg/ml
  % survival: 12%

## Nisin
[2]
  activity against Staphylococcus aureus in the presence of milk: strongly inhibited
[2]; 3 µg/ml
  % survival: 65%
[2]; 10 µg/ml
  % survival: 15%
[2]; 30 µg/ml
  % survival: 1.8%
[2]; 100 µg/ml
  % survival: 0.2%
